The values below are quoted from earlier work in patent US6939400B2, “Ink, production method of the same materials for producing the same and printed matter with the same” (Teikoku Printing Mfg. Co., Ltd., priority 2002, dated 2005).

The test system of the data set is mouse.

Consider `COC(C)(C)CCO` [3-methyl-3-methoxy-1-butanol], for which the “LD 50 value representing the mouse oral toxicity” value was 5,830 mg/kg.
